# Test results: patent US11358952B2, “Substituted 4-aminoisoindoline-1,3-dione compounds, compositions thereof, and methods of treatment therewith” (Celgene Corporation, priority 2018, dated 2022)
# Tested on: SU-DHL-4 cell line
# Assay: SU-DHL-4 cell proliferation assay (Cell Titer-Glo viability)
# Format: cell-based
# Conditions: Homo sapiens; cell viability IC50 activity level, DLBCL cell line SU-DHL-4, 120 hours post-treatment; read-out: SU-DHL-4 Act
# How it was run: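 Viability read by ATP luminescence (Cell Titer-Glo) at the start and after 120 h of growth at 37°C in 5% CO2. DLBCL cells were seeded at 500 per well with compound across 0.5 nM–10 μM in 20 points, 0.1% DMSO. A four-parameter sigmoidal fit gave IC50 as 50% of DMSO control.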
row,IC50,SMILES
1,< 200 nM,"CN1CCC2(CCN(Cc3ccc(CNc4cccc5c4C(=O)N(C4CCC(=O)NC4=O)C5=O)c(F)c3)CC2)C1=O (stereo not drawn) [Cpd 151, 2-(2,6-dioxopiperidin-3-yl)-4-(2-fluoro-4-((2-methyl-1-oxo-2,8-diazaspiro[4.5]decan-8-yl)methyl)benzylamino)isoindoline-1,3-dione]"
2,501 to 750 nM,"NC(=O)c1ccc(N2CCN(Cc3ccc(CNc4cccc5c4C(=O)N(C4CCC(=O)NC4=O)C5=O)cc3F)CC2)nc1 (stereo not drawn) [Cpd 152, 6-(4-(4-((2-(2,6-dioxopiperidin-3-yl)-1,3-dioxoisoindolin-4-ylamino)methyl)-2-fluorobenzyl)piperazin-1-yl)nicotinamide]"
3,501 to 750 nM,"CN1CCC2(CCN(Cc3ccc(CNc4cccc5c4C(=O)N(C4CCC(=O)NC4=O)C5=O)cc3F)CC2)C1=O (stereo not drawn) [Cpd 153, 2-(2,6-dioxopiperidin-3-yl)-4-(3-fluoro-4-((2-methyl-1-oxo-2,8-diazaspior[4.5]decan-8-yl)methyl)benzylamino)isoindoline-1,3-dione]"
4,200 to 500 nM,"O=C1CCC(N2C(=O)c3cccc(NCc4ccc(CN5CCOCC5)cc4F)c3C2=O)C(=O)N1 (stereo not drawn) [Cpd 154, 2-(2,6-dioxopiperidin-3-yl)-4-(2-fluoro-4-(morpholinomethyl)benzylamino) isoindoline-1,3-dione]"
5,751 to 1000 nM,"Cc1cc(CNc2cccc3c2C(=O)N(C2CCC(=O)NC2=O)C3=O)ccc1CN1CCOCC1 (stereo not drawn) [Cpd 155, 2-(2,6-dioxopiperidin-3-yl)-4-(3-methyl-4-(morpholinomethyl)benzylamino) isoindoline-1,3-dione]"
6,< 200 nM,"CCC1(OC)CCN(Cc2ccc(CNc3cccc4c3C(=O)N(C3CCC(=O)NC3=O)C4=O)c(F)c2)CC1 (stereo not drawn) [Cpd 156, 2-(2,6-dioxopiperidin-3-yl)-4-(4-((4-ethyl-4-methoxypiperidin-1-yl)methyl)-2-fluorobenzylamino)isoindoline-1,3-dione]"
7,< 200 nM,"CCC1(OC)CCN(Cc2ccc(CNc3cccc4c3C(=O)N(C3CCC(=O)NC3=O)C4=O)cc2F)CC1 (stereo not drawn) [Cpd 157, 2-(2,6-dioxopiperidin-3-yl)-4-(4-((4-ethyl-4-methoxypiperidin-1-yl)methyl)-3-fluorobenzylamino)isoindoline-1,3-dione]"
8,< 200 nM,"CCOC1(C)CCN(Cc2ccc(CNc3cccc4c3C(=O)N(C3CCC(=O)NC3=O)C4=O)c(F)c2)CC1 (stereo not drawn) [Cpd 158, 2-(2,6-dioxopiperidin-3-yl)-4-(4-((4-ethoxy-4-methylpiperidin-1-yl)methyl)-2-fluorobenzylamino)isoindoline-1,3-dione]"
9,< 200 nM,"CCOC1(C)CCN(Cc2ccc(CNc3cccc4c3C(=O)N(C3CCC(=O)NC3=O)C4=O)cc2F)CC1 (stereo not drawn) [Cpd 159, 2-(2,6-dioxopiperidin-3-yl)-4-(4-((4-ethoxy-4-methylpiperidin-1-yl)methyl)-3-fluorobenzylamino)isoindoline-1,3-dione]"
10,< 200 nM,"CCS(=O)(=O)N1CCN(Cc2ccc(CNc3cccc4c3C(=O)N(C3CCC(=O)NC3=O)C4=O)c(F)c2)CC1 (stereo not drawn) [Cpd 160, 2-(2,6-dioxopiperidin-3-yl)-4-(4-((4-(ethylsulfonyl)piperazin-1-yl)methyl)-2-fluorobenzylamino)isoindoline-1,3-dione]"
11,< 200 nM,"CCS(=O)(=O)N1CCN(Cc2ccc(CNc3cccc4c3C(=O)N(C3CCC(=O)NC3=O)C4=O)cc2F)CC1 (stereo not drawn) [Cpd 161, 2-(2,6-dioxopiperidin-3-yl)-4-(4-((4-(ethylsulfonyl)piperazin-1-yl)methyl)-3-fluorobenzylamino)isoindoline-1,3-dione]"
12,200 to 500 nM,"O=C1CCC(N2C(=O)c3cccc(NCc4ccc(CN5CC6(CCC6)C5)c(F)c4)c3C2=O)C(=O)N1 (stereo not drawn) [Cpd 162, 4-(4-(2-azaspiro[3.3]heptan-2-ylmethyl)-3-fluorobenzylamino)-2-(2,6-dioxopiperidin-3-yl)isoindoline-1,3-dione]"
13,< 200 nM,"O=C1CCC(N2C(=O)c3cccc(NCc4ccc(CN5Cc6ccccc6C5)cc4)c3C2=O)C(=O)N1 (stereo not drawn) [Cpd 163, 2-(2,6-dioxopiperidin-3-yl)-4-(4-(isoindolin-2-ylmethyl)benzylamino)isoindoline-1,3-dione]"
14,200 to 500 nM,"O=C1CCC(N2C(=O)c3cccc(NCc4ccc(CN5Cc6cccc(C(F)(F)F)c6C5)cc4)c3C2=O)C(=O)N1 (stereo not drawn) [Cpd 164, 2-(2,6-dioxopiperidin-3-yl)-4-(4-((4-(trifluoromethyl)isoindolin-2-yl)methyl)benzylamino)isoindoline-1,3-dione]"
15,< 200 nM,"O=C1CCC(N2C(=O)c3cccc(NCc4ccc(CN5CC(c6ccccn6)C5)cc4F)c3C2=O)C(=O)N1 (stereo not drawn) [Cpd 165, 2-(2,6-dioxopiperidin-3-yl)-4-(2-fluoro-4-((3-(pyridin-2-yl)azetidin-1-yl)methyl)benzylamino)isoindoline-1,3-dione]"
16,< 200 nM,O=C1CCC(N2C(=O)c3cccc(NCc4ccc(CN5CCC(c6ccccn6)CC5)cc4F)c3C2=O)C(=O)N1 (stereo not drawn) [Cpd 166]
17,< 200 nM,"O=C1CCC(N2C(=O)c3cccc(NCc4ccc(CN5CCC(F)(c6ccccn6)CC5)cc4F)c3C2=O)C(=O)N1 (stereo not drawn) [Cpd 168, 2-(2,6-dioxopiperidin-3-yl)-4-(2-fluoro-4-((4-fluoro-4-(pyridin-2-yl)piperidin-1-yl)methyl)benzylamino)isoindoline-1,3-dione]"
18,< 200 nM,"O=C1CCC(N2C(=O)c3cccc(NCc4ccc(CN5CC(N6CCCC6=O)C5)cc4F)c3C2=O)C(=O)N1 (stereo not drawn) [Cpd 169, 2-(2,6-dioxopiperidin-3-yl)-4-(2-fluoro-4-((3-(2-oxopyrrolidin-1-yl)azetidin-1-yl)methyl)benzylamino)isoindoline-1,3-dione]"
19,< 200 nM,"O=C1CCC(N2C(=O)c3cccc(NCc4ccc(CN5CCC(N6CCCC6=O)CC5)cc4F)c3C2=O)C(=O)N1 (stereo not drawn) [Cpd 170, 2-(2,6-dioxopiperidin-3-yl)-4-(2-fluoro-4-((4-(2-oxopyrrolidin-1-yl)piperidin-1-yl)methyl)benzylamino)isoindoline-1,3-dione]"
20,< 200 nM,"O=C1CCC(N2C(=O)c3cccc(NCc4ccc(CN5CC(N6CCOCC6)C5)cc4F)c3C2=O)C(=O)N1 (stereo not drawn) [Cpd 171, 2-(2,6-dioxopiperidin-3-yl)-4-(2-fluoro-4-((3-morpholinoazetidin-1-yl)methyl)benzylamino)isoindoline-1,3-dione]"
21,< 200 nM,"O=C1CCC(N2C(=O)c3cccc(NCc4ccc(CN5CCC(N6CCCS6(=O)=O)CC5)cc4F)c3C2=O)C(=O)N1 (stereo not drawn) [Cpd 172, 4-((4-((4-(1,1-dioxidoisothiazolidin-2-yl)piperidin-1-yl)methyl)-2-fluorobenzyl)amino)-2-(2,6-dioxopiperidin-3-yl)isoindoline-1,3-dione]"
22,< 200 nM,CCS(=O)(=O)C1CCN(Cc2ccc(CNc3cccc4c3C(=O)N(C3CCC(=O)NC3=O)C4=O)c(F)c2)CC1 (stereo not drawn) [Cpd 173]
23,< 200 nM,"CC(C)S(=O)(=O)C1CCN(Cc2ccc(CNc3cccc4c3C(=O)N(C3CCC(=O)NC3=O)C4=O)c(F)c2)CC1 (stereo not drawn) [Cpd 174, 2-(2,6-dioxopiperidin-3-yl)-4-(2-fluoro-4-((4-(isopropylsulfonyl)piperidin-1-yl)methyl)benzylamino)isoindoline-1,3-dione]"

row,SMILES,IC50
1,"O=C1CCC(N2C(=O)c3cccc(NCc4ccc(CN5CCC(O)(c6ccccn6)CC5)cc4F)c3C2=O)C(=O)N1 (stereo not drawn) [Cpd 167, 2-(2,6-dioxopiperidin-3-yl)-4-(2-fluoro-4-((4-hydroxy-4-(pyridin-2-yl)piperidin-1-yl)methyl)benzylamino)isoindoline-1,3-dione]",< 200 nM
